Source: US12336977B2, “Nitenin analogue compounds and their use in the treatment of chronic and acute pain” (SEA4US-BIOTECNOLOGIA E RECURSOS MARINHOS, LDA., priority 2019, dated 2025)

What was measured:
[1] = target: T1, hKv1.3 (Homo sapiens, UniProt P22001); experiment: voltage-clamp of K+ currents in CHO-K1 cells expressing hKv1.3; format: cell-based; conditions: inhibition measured at end of 1000 ms pulse, read-out: IC50 of K+ current inhibition, hKv1.3
T1 construct: expressed in transfected cells; host or cells: CHO-K1
T1 sequence (P22001 whole entry): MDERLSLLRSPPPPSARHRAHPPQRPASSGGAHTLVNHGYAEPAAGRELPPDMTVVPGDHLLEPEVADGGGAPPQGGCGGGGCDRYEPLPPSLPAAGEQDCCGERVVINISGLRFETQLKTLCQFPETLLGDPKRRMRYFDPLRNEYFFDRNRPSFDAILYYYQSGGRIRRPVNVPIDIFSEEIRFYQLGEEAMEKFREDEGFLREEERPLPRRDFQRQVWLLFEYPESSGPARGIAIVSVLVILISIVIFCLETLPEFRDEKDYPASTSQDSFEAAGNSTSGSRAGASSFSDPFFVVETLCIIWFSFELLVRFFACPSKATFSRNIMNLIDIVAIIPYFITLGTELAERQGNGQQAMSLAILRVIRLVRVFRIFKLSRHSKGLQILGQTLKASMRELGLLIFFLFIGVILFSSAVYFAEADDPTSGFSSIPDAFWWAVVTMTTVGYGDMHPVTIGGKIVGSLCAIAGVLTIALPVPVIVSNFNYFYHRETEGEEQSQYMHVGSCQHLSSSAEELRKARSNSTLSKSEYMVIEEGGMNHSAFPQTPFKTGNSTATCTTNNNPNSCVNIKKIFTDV
Text: As measure of Ifast, peak current was used, whereas, as a measure of Islow, the current value was obtained at the end of the command pulse (see FIG. 1). Values are expressed as mean±S.E.M. For Islow, a dual phase relationship can be observed. […] Kv1.3 channel is the most sensitive channel (around 6-fold more sensitive in comparison to the “next most sensitive one”, the Kv1.2) Kv1.2, Kv1.1 and Kv1.6 show similar, intermediate sensitivities to nitenin. In opposition, Kv1.4 is the less sensitive (˜31 times less sensitive).
Additionally, drug sensitivity to different voltage-activated channels was assessed by studying the drug effect on currents recorded from chinese hamster ovary (CHO) cells stably transfected with different human Kv channel subunits (Kv1.1, Kv1.2, Kv1.3, Kv1.4 and Kv1.6).
The higher sensitivity of nitenin to Islow (rather than Ifast) and the nature of the nitenin sensitive current (see nitenin sensitive current in FIG. 1.b) urged to understand which K^+ channel(s) do underline Islow. By considering which Kv channel subunits are known to be expressed in DRG, and the biophysical nature of the nitenin-sensitive current, nitenin was tested on whole-cell currents recorded from CHO cells expressing hKv1.1, hKv1.2, hKv1.3, hKv1.4 and hKv1.6. […] Current inhibition was measured at the end of the 1000 ms pulse.

[2] = tested on: K+ currents of small diameter dorsal-root ganglion neuron; experiment: voltage dependence of steady state of inactivation of K+ currents in sdDRGn; format: cell-based, rat
Text: One can observe a shift to hyperpolarized values during the nitenin treatment. The relationships were better fit with the sum of two Boltzmann functions, showing that in both conditions there are two components: one more hyperpolarized component (component 1) and one other more depolarized component (component 2).
One can observe a shift to hyperpolarized values during the treatment with the compound of formula VI. The relationships were better fit with the sum of two Boltzmann functions, showing that in both conditions there are two components: one more hyperpolarized component (component 1) and one other more depolarized component (component 2).
One can observe a shift to hyperpolarized values during the treatment with the compound of formula VII. The relationships were better fit with the sum of two Boltzmann functions, showing that in both conditions there are two components: one more hyperpolarized component (component 1) and one other more depolarized component (component 2).
One can observe a shift to hyperpolarized values during the treatment with the compound of formula VIII. The relationships were better fit with the sum of two Boltzmann functions, showing that in both conditions there are two components: one more hyperpolarized component (component 1) and one other more depolarized component (component 2).
(§1) For the electrophysiological recordings of the ex vivo material, voltage-clamp recordings were performed on neurons isolated from rat DRGs (and TGs). Recordings were performed from the soma that often contained the proximal fraction of axon, 1 hour after the end of the cell isolation process (includes enzymatic and mechanical treatment).

[3] = tested on: K+ currents of small diameter trigeminal ganglion neurons (sdTGNs); experiment: whole-cell voltage-clamp of K+ currents in sdTGNs; format: cell-based, rat
Protocol: The nitenin analogue compounds of the present application were first obtained from the marine sponge Spongia agaracina captured in Sagres, Portugal, but have also been chemically synthesized.
as §1

[4] = tested on: STZ rats; experiment: diabetic neuropathic pain rat model STZ, von Frey filaments; format: in vivo; conditions: I.V. 1 μg/mL of blood; 60 days after STZ
Protocol: […]
For efficacy studies, nociception was assessed in all animals from all pain models by regular behavioural monitoring, by quantifying the sensitivity to mechanical stimuli with Von Frey filaments, and consequently reflecting hyperalgesia when hypersensitive. […] Intraperitoneal administration was tested in CFA rats (23 days after CFA injection), with 10 times the nitenin quantity administered by I.V. injections. […] Oral administration of nitenin through stomach gavages (endogastric), with 100 times the quantity administered by I.V. injections, was tested in CCI rats (31 days after surgery). […]

SMILES: C/C(=C\C1C/C(=C/CCc2ccoc2)C(=O)O1)CCCc1ccoc1 (stereo not drawn) [nitenin]
- IC50 [1]: 190 nM
- effect on I-V curves of the voltage dependence of inactivation [2]: shifts to more hyperpolarised potentials
- Vh2 (voltage of half maximum current, component 2) of steady state inactivation ([2]; nitenin 0.1 μg/ml, 0.29 μM, neuron from injured side of CCI rat 28 days after surgery, control −26.3): −47.0 mV
- Vh1 (voltage of half maximum current, component 1) of steady state inactivation ([2]; nitenin 0.1 μg/ml, 0.29 μM, neuron from injured side of CCI rat 28 days after surgery, control −73.3): −95.3 mV
- effect on K+ currents from sdTGNs [3]: inhibited the K^+ currents
- mechanical sensitivity in the hypersensitive paws [4]: decrease of mechanical sensitivity
